These results are taken from publication PMC10187112 (Journal of Enzyme Inhibition and Medicinal Chemistry, 2023).

Like-named read-outs stand apart in the source and are kept apart here.

In experiment [1] the target is T1, human dopamine D2 (D2S) receptor (Homo sapiens, UniProt P14416).
T1 construct: expressed in transfected cells; host or cells: CHO-K1
The experiment can be described thus: Competition radioligand binding, [3H]-spiperone, CHO-K1 membranes. The settings on record: for Ki: human cloned D2S; for inhibition at 10 µM: read-out: % inh. at 10 μM D2.
Description: (§1) Experiments were carried out in membranes from cell lines stably expressing the human cloned receptors.
(§2) Competition radioligand binding assays were performed on membranes isolated from cell lines stable expressing the cloned human receptors, which were either in-house or commercially available. […] Assays (250 μL assay final volume) were carried out in 96-well polypropylene plates in duplicate. In short, suspension of appropriate membrane protein was incubated in assay buffer with addition of the corresponding radioligand, in the presence or absence of tested compound or reference compound. […] After the incubation, the content of the test plates was transferred to 96-well plates with glass fibre filter GF/B or GF/C, previously pre-treated with polyethyleneimine (PEI), and rapidly filtered with the use of vacuum, followed by rapid washing with cold (4 °C) wash buffer. After that the filter plates were dried at 60 °C for 1 h. Then, 30 μL of liquid scintillation cocktail (UniverSol-ES, MP Biomedicals, Solon, OH) was added to each well of the filter plates and the radioactivity was measured in a MicroBeta2 microplate scintillation counter (PerkinElmer, Madrid, Spain).
(§3) Competition binding curves were fitted to a one-site competition binding model (Fit Ki) with the use of Prism 7 software (GraphPad, San Diego, CA). logKi (log of the equilibrium dissociation constant (Ki)) values were obtained after constraining the concentration of radioligand employed in the assay and its dissociation constant (KD) as determined in saturation radioligand binding assays.

The target of experiment [2] is T2, human serotonin 5-HT1A receptor (Homo sapiens, UniProt P08908).
T2 construct: expressed in transfected cells; host or cells: HEK293
T2 sequence (P08908 1-422): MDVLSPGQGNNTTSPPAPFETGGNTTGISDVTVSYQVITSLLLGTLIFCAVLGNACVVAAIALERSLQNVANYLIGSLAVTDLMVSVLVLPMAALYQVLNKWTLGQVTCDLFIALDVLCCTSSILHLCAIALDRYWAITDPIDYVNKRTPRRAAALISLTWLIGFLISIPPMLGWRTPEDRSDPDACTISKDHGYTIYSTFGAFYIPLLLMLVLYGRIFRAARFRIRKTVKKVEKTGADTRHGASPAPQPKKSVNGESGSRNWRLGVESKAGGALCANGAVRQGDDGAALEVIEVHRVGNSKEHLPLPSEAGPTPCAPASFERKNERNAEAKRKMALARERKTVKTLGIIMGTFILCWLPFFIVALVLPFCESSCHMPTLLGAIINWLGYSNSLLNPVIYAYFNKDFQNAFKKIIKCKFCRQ
The experiment can be described thus: Competition radioligand binding, [3H]-8-OH-DPAT, HEK293 membranes. Conditions: for Ki: human cloned 5-HT1A, read-out: Ki 5-HT1A (converted); for inhibition at 10 µM: read-out: % inh. at 10 μM 5-HT1A.
Description: as §1, §2, §3

The target in experiment [3] is T3, human serotonin 5-HT2A receptor (Homo sapiens, UniProt P28223).
T3 construct: expressed in transfected cells; host or cells: CHO-K1
T3 sequence (P28223 whole entry): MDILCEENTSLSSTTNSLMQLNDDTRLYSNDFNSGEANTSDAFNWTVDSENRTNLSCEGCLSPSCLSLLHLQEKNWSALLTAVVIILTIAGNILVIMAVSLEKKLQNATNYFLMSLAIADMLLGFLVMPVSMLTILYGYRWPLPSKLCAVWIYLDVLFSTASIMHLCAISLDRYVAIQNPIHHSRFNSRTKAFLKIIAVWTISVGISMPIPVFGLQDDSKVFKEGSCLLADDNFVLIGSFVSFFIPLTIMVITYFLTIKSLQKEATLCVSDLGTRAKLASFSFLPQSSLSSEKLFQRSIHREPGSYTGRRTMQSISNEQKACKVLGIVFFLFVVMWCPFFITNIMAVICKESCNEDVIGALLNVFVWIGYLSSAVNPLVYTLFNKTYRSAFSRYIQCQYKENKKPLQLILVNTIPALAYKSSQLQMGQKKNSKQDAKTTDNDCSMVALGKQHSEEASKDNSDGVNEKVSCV
Description: Competition radioligand binding, [3H]-Ketanserin, CHO-K1 membranes. The settings on record: for Ki: human cloned 5-HT2A; for pKi 5-HT2A/pKi D2: ratio of pKi values; for inhibition at 10 µM: read-out: % inh. at 10 μM 5-HT2A.
Description: as §1, §2, §3

The target in experiment [4] is T4, human histamine H1 receptor (Homo sapiens, UniProt P35367).
T4 construct: expressed in transfected cells; host or cells: CHO-K1
T4 sequence (P35367 whole entry): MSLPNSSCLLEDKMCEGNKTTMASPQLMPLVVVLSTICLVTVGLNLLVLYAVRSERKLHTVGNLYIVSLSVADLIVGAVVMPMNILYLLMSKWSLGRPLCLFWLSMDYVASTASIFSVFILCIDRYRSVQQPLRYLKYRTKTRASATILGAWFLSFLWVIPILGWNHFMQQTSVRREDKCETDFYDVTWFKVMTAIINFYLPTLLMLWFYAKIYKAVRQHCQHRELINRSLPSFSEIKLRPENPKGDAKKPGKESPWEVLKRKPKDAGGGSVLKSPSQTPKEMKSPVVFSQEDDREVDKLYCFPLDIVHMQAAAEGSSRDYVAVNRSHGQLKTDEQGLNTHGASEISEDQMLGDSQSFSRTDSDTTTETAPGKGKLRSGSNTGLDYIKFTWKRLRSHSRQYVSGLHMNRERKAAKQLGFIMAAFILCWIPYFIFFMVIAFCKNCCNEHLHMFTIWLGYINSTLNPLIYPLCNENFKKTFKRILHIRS
Description: Competition radioligand binding, [3H]-pyrilamine, CHO-K1 membranes.
Description: as §2, §3

For the next experiment, the target named is T5, human 5-HT2A receptor (Homo sapiens, UniProt P28223).
T5 construct: expressed in transfected cells; host or cells: CHO-K1
T5 sequence (P28223 whole entry): as the sequence (P28223 whole entry) above
The experiment can be described thus: Functional assay of inositol phosphate production (5-HT2A antagonism), CHO-K1 cells. It is filed as cell-based.

The next experiment addresses T6, human 5-HT1A receptor (Homo sapiens, UniProt P08908).
T6 construct: expressed in transfected cells; host or cells: HEK293
T6 sequence (P08908 1-422): T2 sequence (P08908 1-422)
The experiment can be described thus: Functional assay of cAMP signalling (5-HT1A agonism), HEK293 cells. It is filed as cell-based.

In experiment [5] the target is T7, human dopamine D3 receptor (Homo sapiens, UniProt P35462).
T7 construct: expressed in transfected cells; host or cells: CHO-K1
T7 sequence (P35462 whole entry): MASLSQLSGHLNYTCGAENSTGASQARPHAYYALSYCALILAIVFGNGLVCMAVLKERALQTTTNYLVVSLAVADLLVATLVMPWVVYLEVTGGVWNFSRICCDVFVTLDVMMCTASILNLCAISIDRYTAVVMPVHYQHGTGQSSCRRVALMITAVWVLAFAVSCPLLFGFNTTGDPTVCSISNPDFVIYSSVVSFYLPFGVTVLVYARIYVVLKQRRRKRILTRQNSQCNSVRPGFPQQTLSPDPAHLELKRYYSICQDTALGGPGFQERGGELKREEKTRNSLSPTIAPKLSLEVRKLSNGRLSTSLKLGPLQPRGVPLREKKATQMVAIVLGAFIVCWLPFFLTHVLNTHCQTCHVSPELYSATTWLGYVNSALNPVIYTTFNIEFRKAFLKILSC
The experiment can be described thus: Competition radioligand binding, [3H]-spiperone, CHO-K1 membranes.
Description: as §2, §3

For a further experiment, the target named is T8, human 5-HT7 receptor (Homo sapiens, UniProt P34969).
T8 construct: expressed in transfected cells; host or cells: HEK293
T8 sequence (P34969 whole entry): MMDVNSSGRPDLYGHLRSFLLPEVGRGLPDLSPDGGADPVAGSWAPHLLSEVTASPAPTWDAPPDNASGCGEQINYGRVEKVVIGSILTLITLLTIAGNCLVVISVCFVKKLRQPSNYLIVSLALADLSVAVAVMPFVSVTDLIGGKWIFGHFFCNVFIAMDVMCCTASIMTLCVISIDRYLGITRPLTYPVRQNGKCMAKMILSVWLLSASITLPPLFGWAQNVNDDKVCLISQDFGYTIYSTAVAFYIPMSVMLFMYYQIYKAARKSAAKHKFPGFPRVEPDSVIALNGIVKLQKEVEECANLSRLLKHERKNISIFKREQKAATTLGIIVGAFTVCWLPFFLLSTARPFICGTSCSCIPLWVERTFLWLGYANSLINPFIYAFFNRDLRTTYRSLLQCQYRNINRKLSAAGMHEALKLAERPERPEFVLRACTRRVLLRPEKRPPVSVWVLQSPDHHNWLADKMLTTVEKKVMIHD
The experiment can be described thus: Competition radioligand binding, [3H]-SB269970, HEK293 membranes.

The target in experiment [6] is T9, human muscarinic M1 receptor (Homo sapiens, UniProt P11229).
T9 construct: expressed in transfected cells; host or cells: CHO-K1
T9 sequence (P11229 1-460): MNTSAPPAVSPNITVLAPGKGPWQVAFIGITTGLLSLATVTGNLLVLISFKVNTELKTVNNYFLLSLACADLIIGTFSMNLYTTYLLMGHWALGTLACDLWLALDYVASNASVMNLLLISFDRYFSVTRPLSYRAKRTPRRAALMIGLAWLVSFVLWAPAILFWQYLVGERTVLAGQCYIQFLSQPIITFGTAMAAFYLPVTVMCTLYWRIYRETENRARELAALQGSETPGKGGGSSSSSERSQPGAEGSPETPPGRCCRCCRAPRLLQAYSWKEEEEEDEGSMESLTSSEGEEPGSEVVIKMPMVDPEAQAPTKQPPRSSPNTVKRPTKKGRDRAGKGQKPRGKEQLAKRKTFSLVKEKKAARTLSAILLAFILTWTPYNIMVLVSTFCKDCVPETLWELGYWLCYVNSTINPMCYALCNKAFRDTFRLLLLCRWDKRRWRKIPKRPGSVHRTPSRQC
Description: Competition radioligand binding, [3H]-pirenzepine, CHO-K1 membranes. Conditions: read-out: % inh. at 10 μM M1.
Description: as §2, §3

Another experiment deals with human D2S receptor (Homo sapiens, UniProt P14416). Description: Functional assay of cAMP signalling (D2 antagonism), CHO-K1 cells.
human D2S receptor, sequence (P14416 1-414 isoform P14416-2): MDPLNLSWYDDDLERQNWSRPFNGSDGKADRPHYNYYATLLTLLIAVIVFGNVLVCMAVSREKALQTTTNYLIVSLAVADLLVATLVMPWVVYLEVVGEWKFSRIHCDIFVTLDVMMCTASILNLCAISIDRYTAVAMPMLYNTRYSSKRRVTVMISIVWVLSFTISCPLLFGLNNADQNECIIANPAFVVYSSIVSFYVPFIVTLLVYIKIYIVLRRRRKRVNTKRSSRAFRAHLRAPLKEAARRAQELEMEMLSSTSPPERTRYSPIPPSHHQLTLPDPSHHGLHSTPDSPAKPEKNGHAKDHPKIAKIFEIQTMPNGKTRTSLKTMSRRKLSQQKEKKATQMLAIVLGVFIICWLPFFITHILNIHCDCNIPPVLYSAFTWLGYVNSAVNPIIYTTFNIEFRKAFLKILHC
For another experiment, the system named is mice. Description: Amphetamine-induced hyperactivity. The settings on record: 5 mg/kg s.c., recorded 30 min, p < 0.0001.
Where [7] appears, read: mean ± SEM, read-out: pKi D2 (converted).

T1 sequence (P14416 1-414 isoform P14416-2): as above
Description for human 5-HT1A receptor: The activity of selected compounds at 5-HT1A receptor was investigated in cell-based functional assays of cAMP signalling in the HEK293 cell line stably expressing the cloned human 5-HT1A receptor also employed for the radioligand binding assays. […] Test compounds were added to the assay plates from 5× working dilution intermediate plates, which were prepared by means of acoustic noncontact dispensing of the compounds, keeping vehicle concentration (0.1% DMSO) constant in the assay.
Description for human 5-HT2A receptor: The activity of selected compounds at 5-HT2A receptors was investigated in cell-based functional assays of IP production in the CHO-K1 cell line stably expressing the cloned human 5-HT2A receptor also employed for the radioligand binding assays. Twenty-four hours before the experiment, cells in culture were seeded in complete growth medium prepared with dialysed foetal bovine serum, in half-area, white, 96-well tissue culture plates (Corning®, Fisher Scientific SL, Madrid, Spain). At the day of assay, plates were washed with assay buffer (kit stimulation buffer) and incubated with test compounds for 10 min at 37 °C. Test compounds were added to the assay plates from 7× working dilution intermediate plates that were prepared by means of acoustic noncontact dispensing of the compounds, keeping vehicle concentration (0.1% DMSO) constant in the assay. […] After this time, cellular IP levels were quantified by using the HTRF-based inositol monophosphate kit IP-One Gq kit (Cisbio, Bioassays, Codolet, France) following the manufacturer’s protocol. […] Basal IP levels were determined in control wells in the absence of compound and agonist. […] Kb value of the compounds was estimated as described above for functional assays of cAMP signalling at D2 receptors.
Description for human 5-HT7 receptor: as §2, §3

Consider `COc1ccccc1N1CCN(CCCNC(=O)c2n[nH]c3ccccc23)CC1` [Compound 2, N-(3-(4-(2-methoxyphenyl)piperazin-1-yl)propyl)-1H-indazole-3-carboxamide], for which the Ki is 22.7 nM in experiment [1] (read-out: Ki D2 (converted)), 22.9 nM in experiment [2] and 372 nM in experiment [3]. In addition, the “pKi 5-HT2A/pKi D2” value in experiment [3] was determined as 0.84.

Consider `COc1cccc(N2CCN(CCCNC(=O)c3n[nH]c4ccccc34)CC2)c1` [Compound 3, N-(3-(4-(3-methoxyphenyl)piperazin-1-yl)propyl)-1H-indazole-3-carboxamide], for which the Ki in experiment [1] (read-out: Ki D2 (converted)) is 315 nM; in [2] it was 110 nM; in [3], 184 nM. Also, the “pKi 5-HT2A/pKi D2” value in experiment [3] is listed as 1.04.

With `COc1ccc(N2CCN(CCCNC(=O)c3n[nH]c4ccccc34)CC2)cc1` [Compound 4, N-(3-(4-(4-methoxyphenyl)piperazin-1-yl)propyl)-1H-indazole-3-carboxamide], the inhibition at 10 µM in experiment [1] was found to be 46 ± 6%; in [2], 58.4 ± 1.8%. In experiment [3], this molecule gave a Ki of 491 nM.

Take `O=C(NCCCN1CCN(c2ccccn2)CC1)c1n[nH]c2ccccc12` [Compound 5, N-(3-(4-(pyridin-2-yl)piperazin-1-yl)propyl)-1H-indazole-3-carboxamide]: the Ki in experiment [1] (read-out: Ki D2 (converted)) was 339 nM; in experiment [2], 113 nM; in experiment [3], 132 nM. Moreover, in [3], the “pKi 5-HT2A/pKi D2” value is given as 1.06.

For `O=C(NCCCN1CCN(c2cccnc2)CC1)c1n[nH]c2ccccc12` [Compound 6, N-(3-(4-(pyridin-3-yl)piperazin-1-yl)propyl)-1H-indazole-3-carboxamide], the Ki in [1] (read-out: Ki D2 (converted)) is 1010 nM; in experiment [2] it was 1380 nM; in [3], 2650 nM. Also, the “pKi 5-HT2A/pKi D2” value in experiment [3] turned out to be 0.93.

Consider `O=C(NCCCN1CCN(c2ccncc2)CC1)c1n[nH]c2ccccc12` [Compound 7, N-(3-(4-(pyridin-4-yl)piperazin-1-yl)propyl)-1H-indazole-3-carboxamide], for which the inhibition at 10 µM in [1] was 0%; in experiment [2], 27.9 ± 2.7%; in experiment [3], 0%.

On to `O=C(NCCCN1CCN(c2ncccn2)CC1)c1n[nH]c2ccccc12` [Compound 8, N-(3-(4-(pyrimidin-2-yl)piperazin-1-yl)propyl)-1H-indazole-3-carboxamide], for which the values for the Ki in experiment [1] (read-out: Ki D2 (converted)), in [2] and in [3] were 480 nM, 238 nM and 807 nM, respectively. The “pKi 5-HT2A/pKi D2” value in [3] turned out to be 0.96.

With `O=C(NCCCN1CCN(c2ccccc2F)CC1)c1n[nH]c2ccccc12` [Compound 9, N-(3-(4-(2-fluorophenyl)piperazin-1-yl)propyl)-1H-indazole-3-carboxamide], the Ki was 41.7 nM in [1] (setting [7]), 42.2 nM in experiment [1] (read-out: Ki D2 (converted)), 135 nM in [2] and 117 nM in experiment [3]. Besides, the “pKi 5-HT2A/pKi D2” value in experiment [3] was 0.94.

As usually defined, the Kb is the equilibrium dissociation constant of an antagonist, usually derived from a functional assay. What is called EC50 is the midpoint of the concentration-response curve. A lower EC50 goes with an effect from little substance. Consider `O=C(NCCCN1CCN(c2ccc(F)cc2)CC1)c1n[nH]c2ccccc12` [Compound 11, N-(3-(4-(4-fluorophenyl)piperazin-1-yl)propyl)-1H-indazole-3-carboxamide], for which the Ki is 364 nM in experiment [4]; 450 nM in experiment [1] (read-out: Ki D2 (converted)); 607 nM in experiment [2]; 5010 nM in experiment [5]; 196 nM on human 5-HT7 receptor; 12.6 nM in [3]. The inhibition at 10 µM worked out at 103 ± 2.2% at human 5-HT2A receptor (CHO-K1, read-out: 5-HT2A antagonism %inh. of 5-HT response); 75.3 ± 6.8% on human 5-HT1A receptor (HEK293, 10 µM compound, 1 µM forskolin, read-out: 5-HT1A agonism %inh. of FSK response); 0% in experiment [6]; 49.7 ± 8% on human D2S receptor (CHO-K1, read-out: D2 antagonism %inh. of DA response). For the same molecule, the values for the Kb on human 5-HT2A receptor (read-out: 5-HT2A antagonism (IP signalling) Kb) and at human D2S receptor were 19.2 ± 7.2 nM and 99.1 nM, respectively. On human 5-HT1A receptor, the response was half-maximal at 5600 ± 1200 nM (EC50). Further, the “pKi 5-HT2A/pKi D2” value in [3] was determined as 1.24. On human D2S receptor (CHO-K1, read-out: % of inhibition of 1 µM dopamine response), the inhibition at 1 µM came out at 21.3 ± 4.3%.

As for `O=C(NCCCN1CCN(c2ccccc2C(F)(F)F)CC1)c1n[nH]c2ccccc12` [Compound 12, N-(3-(4-(2-(trifluoromethyl)phenyl)piperazin-1-yl)propyl)-1H-indazole-3-carboxamide], the Ki in experiment [1] (setting [7]) was 44.7 nM; in experiment [1] (read-out: Ki D2 (converted)) it was 45.2 nM; in experiment [2], 423 nM; in experiment [3], 832 nM. The “pKi 5-HT2A/pKi D2” value in [3] turned out to be 0.83.

`O=C(NCCCN1CCN(c2ccccc2Cl)CC1)c1n[nH]c2ccccc12` [Compound 13, N-(3-(4-(2-chlorophenyl)piperazin-1-yl)propyl)-1H-indazole-3-carboxamide]: the Ki in [1] (read-out: Ki D2 (converted)) was 69.7 nM; in experiment [2] it was 107 nM; in experiment [3] it was 134 nM. In addition, the “pKi 5-HT2A/pKi D2” value in experiment [3] turned out to be 0.96.

Consider `CSc1ccccc1N1CCN(CCCNC(=O)c2n[nH]c3ccccc23)CC1` [Compound 14, N-(3-(4-(2-(methylthio)phenyl)piperazin-1-yl)propyl)-1H-indazole-3-carboxamide], for which the results for the Ki in experiment [1] (read-out: Ki D2 (converted)), in experiment [2] and in experiment [3] were 7.05 nM, 12.4 nM and 217 nM, respectively. The “pKi 5-HT2A/pKi D2” value in experiment [3] was found to be 0.82.

Take `CCOc1ccccc1N1CCN(CCCNC(=O)c2n[nH]c3ccccc23)CC1` [Compound 15, N-(3-(4-(2-ethoxyphenyl)piperazin-1-yl)propyl)-1H-indazole-3-carboxamide]: the Ki is 19.8 nM in [1] (read-out: Ki D2 (converted)), 46.9 nM in experiment [2] and 280 nM in experiment [3]. In addition, the “pKi 5-HT2A/pKi D2” value in [3] was found to be 0.85.

For `O=C(NCCCN1CCN(C2CCCCC2)CC1)c1n[nH]c2ccccc12` [Compound 16, N-(3-(4-cyclohexylpiperazin-1-yl)propyl)-1H-indazole-3-carboxamide], the inhibition at 10 µM in experiment [1] came to 19 ± 6.8%; in experiment [2] it was 56.7 ± 1.6%; in experiment [3] it was 25.6 ± 9%.

Turning to `CC(N)Cc1ccccc1` (stereo not shown) [amphetamine, reference compound], the “Locomotor activity vs. vehicle group” value with mice is reported as “increased locomotor activity”.
